Experimental data reported in article PMC6145841 (Biochemistry, 2018).
Square brackets hold non-standard residues; d marks the D form. Peptide text beside a SMILES is read from it.

Columns and labels:
[1] = target: T1, ComD1 receptor (Streptococcus pneumoniae serotype 2, UniProt A0A0H2ZM50); experiment: Beta-galactosidase reporter dose response assay, group I strain D39pcomX::lacZ; assay type: cell-based
[2] = target: ComD2 receptor (Streptococcus pneumoniae serotype 4, UniProt A0A0H2US84); assay type: cell-based
[3] = target: T1, ComD1 receptor; conditions: Table 1; ref [26]; cited from earlier work

CC[C@H](C)[C@H](NC(=O)[C@H](C)NC(=O)[C@H](C)NC(=O)[C@H](C)NC(=O)[C@H](CCCNC(=N)N)NC(=O)[C@H](CCSC)NC(=O)[C@@H](N)CCC(=O)O)C(=O)N[C@H](C(=O)N[C@@H](CC(C)C)C(=O)N[C@H](CC(=O)O)C(=O)N[C@@H](Cc1ccccc1)C(=O)N[C@@H](CC(C)C)C(=O)N[C@@H](Cc1ccccc1)C(=O)N[C@@H](C)C(=O)N[C@@H](CCCNC(=N)N)C(=O)N[C@@H](CCCCN)C(=O)N[C@@H](CCCCN)C(=O)O)[C@@H](C)CC [CSP2-I4AS5AR6Ad10L14A] (H-EMRAAAIIL[dD]FLFARKK-OH)
EC50 [1]: > 1000 nM
EC50 [2]: 87.7 nM

EMALSKFFRDFILQRKK [CSP1-R3A]
activity against the ComD1 receptor (in words) [3]: complete loss of activity
